In PMC5269379 (Organic letters, 2016):
“Also recorded” adds a separate entry of the source.

Tests used:
rabbit red blood cells = assay: Synergistic hemolytic activity in combination with CylLL″; assay type: cell-based; details: Figure S6
[1] = tested on: Lactococcus lactis HP and L. lactis CNRZ 481; assay: Antimicrobial activity assay; assay type: cell-based; details: in combination with CylLL″; Figures S2, S5
L. lactis 481 = assay type: cell-based, Lactococcus lactis; details: for combined with CylLL″ MIC: concentration of each component; for combined with CylLL″ MIC / individual MIC: L. lactis 481; for individual MIC: peptide alone

Substance | hemolytic activity (in words) (rabbit red blood cells) | antimicrobial activity (in words) [1] | combined with CylLL″ MIC (L. lactis 481; combined with CylLL″) [µM] | fold increase of MIC in liquid culture (L. lactis 481; combined with CylLL″, liquid culture) [fold] | individual MIC (L. lactis 481) [µM]
CylLS″-Dhb2Dha (DL-A ring, DL-B ring) [compound 11] | no decrease of hemolytic activity | decreased antimicrobial activity; also recorded: markedly smaller zone of growth inhibition | 1.0 | 10 | >50
CylLS″-Dhb2Dha (LL-A ring, DL-B ring) [synthetic 12] | – | identical antimicrobial activity | 0.1 | – | >50
CylLS″-Dhb2Dha [biosynthetic 12] | very similar hemolytic activity | very similar antimicrobial activity | 0.1 | – | >50
cytolysin L [CylLL″, reference compound] | – | – | – | – | >50
cytolysin S [CylLS″, reference compound] | very similar hemolytic activity | – | 0.05 | – | >50
